According to article PMC5585256 (Scientific Reports, 2017):
Marks after values point to notes of the source that are not given here.

Key:
Format in all cases: biochemical
[1] = molecular target: T1, pBChEV2 (F227A/S287G/A328W/Y332A) (Homo sapiens, UniProt P06276, A356W/F255A/S315G/Y360A); test: Inhibition of BTC hydrolysis activity of pBChEV2; conditions: for Fold increase in sensitivity relative to WT pBChE: pBChEV2 vs WT pBChE
T1 construct: hexahistidine (C); barley alpha-amylase signal peptide (N); made in house; host or cells: Nicotiana benthamiana (transient, MagnICON/TMV vector)
Procedure: (§1) To this end, BTC hydrolysis was analyzed following a 30-minute incubation with the inhibitors.
(§2) The four inhibitors were purchased from Sigma (St Louis, MO).
(§3) Preparations of BChE and variants thereof were incubated in 96-well plate format with indicated concentrations of the inhibitors for 30 min at room temperature followed by activity measurements based on modified Ellman assay using 1 mM BTC as the substrate. IC50 values were determined by non-linear regression (GraphPad Prism) fit according to Equation (4).

[2] = molecular target: T2, pBChEV3 (A199S/S287G/A328W/Y332G) (Homo sapiens, UniProt P06276, A227S/A356W/S315G/Y360G); test: Inhibition of BTC hydrolysis activity of pBChEV3; conditions: for Fold increase in sensitivity relative to WT pBChE: pBChEV3 vs WT pBChE
T2 construct: hexahistidine (C); barley alpha-amylase signal peptide (N); made in house; host or cells: Nicotiana benthamiana (transient, MagnICON/TMV vector)
Procedure: as §1, §2, §3

[3] = molecular target: T3, pBChEV5 (F227A/S287G/A328W/Y332G) (Homo sapiens, UniProt P06276, A356W/F255A/S315G/Y360G); test: Inhibition of BTC hydrolysis activity of pBChEV5; conditions: for Fold increase in sensitivity relative to WT pBChE: pBChEV5 vs WT pBChE
T3 construct: hexahistidine (C); barley alpha-amylase signal peptide (N); made in house; host or cells: Nicotiana benthamiana (transient, MagnICON/TMV vector)
Procedure: as §1, §2, §3

[4] = molecular target: T4, pBChEV4 (A199S/F227A/S287G/A328W/Y332G) (Homo sapiens, UniProt P06276, A227S/A356W/F255A/S315G/Y360G); test: Inhibition of BTC hydrolysis activity of pBChEV4; conditions: for Fold increase in sensitivity relative to WT pBChE: pBChEV4 vs WT pBChE
T4 construct: hexahistidine (C); barley alpha-amylase signal peptide (N); made in house; host or cells: Nicotiana benthamiana (transient, MagnICON/TMV vector)
Procedure: as §1, §2, §3

[5] = molecular target: T5, WT hBChE (human plasma-derived butyrylcholinesterase) (Homo sapiens, UniProt P06276); test: Inhibition of BTC hydrolysis activity of WT hBChE; conditions: for Fold increase in sensitivity relative to WT pBChE: WT hBChE vs WT pBChE
T5 construct: we first compared WT human plasma-derived (hBChE) to pBChE; from tissue; host or cells: human plasma
Procedure: as §1, §2, §3

[6] = molecular target: T6, WT pBChE (plant-derived human butyrylcholinesterase) (Homo sapiens, UniProt P06276); test: Inhibition of BTC hydrolysis activity of WT pBChE; conditions: for Fold increase in sensitivity relative to WT pBChE: WT pBChE (reference)
T6 construct: barley alpha-amylase signal peptide (N); made in house; host or cells: Nicotiana benthamiana (transient, MagnICON/TMV vector, Agrobacterium infiltration)
Procedure: as §1, §2, §3

[7] = molecular target: T7, pBChEV4 (Homo sapiens, UniProt P06276, A227S/A356W/F255A/S315G/Y360G); test: Inhibition rate constant for paraoxon, pBChEV4; conditions: enzyme pBChEV4
T7 construct: hexahistidine (C); barley alpha-amylase signal peptide (N); made in house; host or cells: Nicotiana benthamiana (transient, MagnICON/TMV vector)

[8] = molecular target: T8, WT pBChE (Homo sapiens, UniProt P06276); test: Inhibition rate constant for paraoxon, WT pBChE; conditions: enzyme WT pBChE
T8 construct: barley alpha-amylase signal peptide (N); made in house; host or cells: Nicotiana benthamiana (transient, MagnICON/TMV vector, Agrobacterium infiltration)

[9] = Radiometric (−)-cocaine hydrolysis assay; conditions: substrate (−)-cocaine

T1 sequence (P06276 29-602 F255A/S315G/A356W/Y360A): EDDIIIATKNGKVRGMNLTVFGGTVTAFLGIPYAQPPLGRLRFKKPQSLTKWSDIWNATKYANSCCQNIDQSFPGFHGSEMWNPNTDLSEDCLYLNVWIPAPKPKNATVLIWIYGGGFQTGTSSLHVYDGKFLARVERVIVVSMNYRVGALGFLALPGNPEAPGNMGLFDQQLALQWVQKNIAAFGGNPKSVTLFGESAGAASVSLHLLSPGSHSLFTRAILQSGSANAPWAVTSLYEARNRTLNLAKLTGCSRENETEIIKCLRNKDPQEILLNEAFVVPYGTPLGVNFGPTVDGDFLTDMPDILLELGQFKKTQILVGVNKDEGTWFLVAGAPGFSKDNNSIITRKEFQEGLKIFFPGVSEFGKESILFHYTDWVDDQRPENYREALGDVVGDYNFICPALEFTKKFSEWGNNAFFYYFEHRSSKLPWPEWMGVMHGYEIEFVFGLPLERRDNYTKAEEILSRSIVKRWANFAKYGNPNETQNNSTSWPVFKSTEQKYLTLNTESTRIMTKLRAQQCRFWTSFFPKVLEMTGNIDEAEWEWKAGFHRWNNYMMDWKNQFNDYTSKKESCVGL
T3 sequence (P06276 29-602 F255A/S315G/A356W/Y360G): as the sequence (P06276 29-602 F255A/S315G/A356W/Y360A) above, with A332G counted along it
T2 sequence (P06276 29-602 A227S/S315G/A356W/Y360G): as the sequence (P06276 29-602 F255A/S315G/A356W/Y360A) above, with A199S, A227F, A332G counted along it
T4 sequence (P06276 29-602 A227S/F255A/S315G/A356W/Y360G): as the sequence (P06276 29-602 F255A/S315G/A356W/Y360A) above, with A199S, A332G counted along it
T7 sequence (P06276 29-602 A227S/F255A/S315G/A356W/Y360G): as the sequence (P06276 29-602 F255A/S315G/A356W/Y360A) above, with A199S, A332G counted along it

CN(C)C(=O)Oc1cccc([N+](C)(C)C)c1 [Neostigmine, [3-(dimethylcarbamoyloxy)phenyl]-trimethylazanium;bromide]
IC50 [1]: 17.8 nM
Fold increase in sensitivity relative to WT pBChE [1]: (13)^**** fold
Fold increase in sensitivity relative to WT pBChE ([1]; listed as neostigmine): 10–20 fold
IC50 [2]: 204 nM
Fold increase in sensitivity relative to WT pBChE [2]: (1) fold
Fold increase in sensitivity relative to WT pBChE ([2]; listed as neostigmine): near WT levels
IC50 [3]: 13.2 nM
Fold increase in sensitivity relative to WT pBChE [3]: (17)^**** fold
Fold increase in sensitivity relative to WT pBChE ([3]; listed as neostigmine): 10–20 fold
IC50 [4]: 155 nM
Fold increase in sensitivity relative to WT pBChE [4]: (1)^**** fold
Fold increase in sensitivity relative to WT pBChE ([4]; listed as neostigmine): near WT levels
IC50 [5]: 162 nM
Fold increase in sensitivity relative to WT pBChE [5]: (1)^**** fold
IC50 [6]: 229 nM
Fold increase in sensitivity relative to WT pBChE [6]: (1) fold

CCOP(=O)(OCC)Oc1ccc([N+](=O)[O-])cc1 [Paraoxon, diethyl (4-nitrophenyl) phosphate]
inhibition rate constant (ki) [7]: 1.7e+07 M⁻¹ min⁻¹
Fold increase in sensitivity relative to WT pBChE [1]: (38)^**** fold
Fold increase in sensitivity relative to WT pBChE ([1]; listed as paraoxon): 40–50 fold
inhibition rate constant (ki) [8]: 3.14e+06 M⁻¹ min⁻¹
Fold increase in sensitivity relative to WT pBChE [2]: (3)^**** fold
Fold increase in sensitivity relative to WT pBChE ([2]; listed as paraoxon): 3–7 fold
Fold increase in sensitivity relative to WT pBChE [3]: (46)^**** fold
Fold increase in sensitivity relative to WT pBChE ([3]; listed as paraoxon): 40–50 fold
Fold increase in sensitivity relative to WT pBChE [4]: (6)^**** fold
Fold increase in sensitivity relative to WT pBChE ([4]; listed as paraoxon): 3–7 fold
Fold increase in sensitivity relative to WT pBChE [5]: (0.9) fold
Fold increase in sensitivity relative to WT pBChE [6]: (1) fold

B1: WT pBChE (protein, UniProt P06276 29-602, looked up)
Cholinesterase: EDDIIIATKNGKVRGMNLTVFGGTVTAFLGIPYAQPPLGRLRFKKPQSLTKWSDIWNATKYANSCCQNIDQSFPGFHGSEMWNPNTDLSEDCLYLNVWIPAPKPKNATVLIWIYGGGFQTGTSSLHVYDGKFLARVERVIVVSMNYRVGALGFLALPGNPEAPGNMGLFDQQLALQWVQKNIAAFGGNPKSVTLFGESAGAASVSLHLLSPGSHSLFTRAILQSGSFNAPWAVTSLYEARNRTLNLAKLTGCSRENETEIIKCLRNKDPQEILLNEAFVVPYGTPLSVNFGPTVDGDFLTDMPDILLELGQFKKTQILVGVNKDEGTAFLVYGAPGFSKDNNSIITRKEFQEGLKIFFPGVSEFGKESILFHYTDWVDDQRPENYREALGDVVGDYNFICPALEFTKKFSEWGNNAFFYYFEHRSSKLPWPEWMGVMHGYEIEFVFGLPLERRDNYTKAEEILSRSIVKRWANFAKYGNPNETQNNSTSWPVFKSTEQKYLTLNTESTRIMTKLRAQQCRFWTSFFPKVLEMTGNIDEAEWEWKAGFHRWNNYMMDWKNQFNDYTSKKESCVGL
modifications: plant-expressed
k cat [9]: 2.6 min⁻¹
